Earlier results on one molecule are cited in publication PMC3518266 (Chemistry & biology, 2010).

The data set concerns the target hevamine. Particulars: competitive inhibition of hevamine; ref Vaaje-Kolstad et al., 2004; cited from earlier work.

On to `CC(=O)N[C@H]1[C@H](O[C@H]2[C@@H](O)[C@@H](NC(C)=O)[C@H](O[C@H]3[C@H](O)[C@H]4N=C(N(C)C)O[C@H]4[C@@H]3CO)O[C@@H]2CO)O[C@H](CO)[C@@H](O)[C@H]1O` [allosamidin], for which the inhibition constant Ki (in general, a dissociation constant, usually derived from enzyme kinetics or from competition with a known ligand) is 3.1 µM.
